Data published in patent publication US6673937B2, “Syntheses and methods of use of new antimitotic agents” (The University of Pittsburgh, priority 2000, dated 2004).

Columns and labels:
[1] = target: T1, Cdk1 (Homo sapiens, UniProt P06493); test: Cdk1 kinase activity assay (histone H1 phosphorylation); format: biochemical; conditions: immunoprecipitate from MCF-7 cells, 20 min
T1 construct: Lysates from asynchronous MCF-7 cells were immunoprecipitated with anti Cdk1 antibody coupled to agarose; endogenous in cells; host or cells: MCF-7 human breast cancer cells (immunoprecipitate)
T1 sequence (P06493 whole entry): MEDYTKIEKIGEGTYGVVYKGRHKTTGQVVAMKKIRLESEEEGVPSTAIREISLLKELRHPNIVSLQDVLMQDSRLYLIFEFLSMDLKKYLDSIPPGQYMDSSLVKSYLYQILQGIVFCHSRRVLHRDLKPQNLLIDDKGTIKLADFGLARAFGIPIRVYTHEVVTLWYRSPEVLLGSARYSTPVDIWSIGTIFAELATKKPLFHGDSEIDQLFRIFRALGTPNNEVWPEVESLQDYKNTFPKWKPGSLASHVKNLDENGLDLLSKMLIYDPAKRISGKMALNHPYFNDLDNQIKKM
T1 sequence (P14635 whole entry partner): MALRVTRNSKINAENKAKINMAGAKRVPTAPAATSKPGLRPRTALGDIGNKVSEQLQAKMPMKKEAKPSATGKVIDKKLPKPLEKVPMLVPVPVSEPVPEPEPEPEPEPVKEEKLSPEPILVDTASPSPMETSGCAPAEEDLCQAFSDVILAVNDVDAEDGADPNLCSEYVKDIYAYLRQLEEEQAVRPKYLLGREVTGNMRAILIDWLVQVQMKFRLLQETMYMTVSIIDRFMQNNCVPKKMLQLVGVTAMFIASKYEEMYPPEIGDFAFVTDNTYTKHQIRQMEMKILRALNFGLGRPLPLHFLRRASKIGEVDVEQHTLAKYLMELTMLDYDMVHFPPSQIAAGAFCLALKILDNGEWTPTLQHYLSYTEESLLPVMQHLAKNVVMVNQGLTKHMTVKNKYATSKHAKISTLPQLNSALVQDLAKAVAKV
Method: tsFT210 cells were harvested using the same procedure for cell synchronizing and drug exposure as described above for the G2/M flow cytometric analysis. The protein lysates were analyzed by Western blotting for Cdk1 as described previously (Tamura K, Southwick EC, Kerns J, Rosi K, Carr BI, Wilcox C and Lazo JS (2000) Cdc25 inhibition and cell cycle arrest by a synthetic thioalkyl vitamin K analogue. Cancer Res 60:1317-1325.). The inventors used Cdk1 isolated from human MCF-7 cells to assay for in vitro inhibition of enzyme activity because of available antibodies and convenience. Asynchronous cells grown at 37° C. in 5% CO2 in DMEM containing 10% fetal bovine serum were treated with lysis buffer and harvested as previously described (Vogt A, Wang AS, Johnson CS, Fabisiak JP, Wipf P and Lazo JS (2000) In vivo antitumor activity and induction of insulin-like growth factor-1 resistant apoptosis by SC-ααδ9. J Pharmacol Exptl Therap 292:530-537.). […] Histone H1 was separated from other proteins by SDS-PAGE and analyzed for incorporation of radioactive phosphate with a Molecular Dynamics STORM 860 Phospholmager (Sunnyvale, CA). […]

[2] = test system: recombinant Cdc25; test: In vitro inhibition of recombinant Cdc25; format: biochemical; conditions: 30 μM, data not shown

Question: For `O=C1C=CC2(Oc3cccc4cccc(c34)O2)c2cccc(OCc3ccco3)c21` [SR-7, 8-(furan-2-ylmethoxy)-1-oxo-1,4-dihydronaphthalene-4-spiro-2′-naphto [1″,8″-de][1′,3′] dioxin], which “direct inhibition of Cdk1 kinase activity” value [1] is on record?
Answer: The value was “not directly inhibited”.

Question: And the “inhibition of recombinant Cdc25 activity” value [2]?
Answer: Its value is “no inhibition”.
